Tests used:
Rhesus monkeys = experiment: Anesthetic effects in monkeys (loss of consciousness); format: in vivo; conditions: intravenous single bolus
Text: (§1) In anesthetic activity tests, latency generally refers to the period between the start of administration of a drug to a subject and the moment that the subject becomes unconscious. A short latency is desirable, since it represents fast onset of the drug.
(§2) The duration of anesthesia generally refers to the period between the moment that a subject becomes unconscious and the moment that the subject regains consciousness. The durations will be different for different animal models or animal species. An over-long duration of anesthesia may result in adverse suppressive effects on the cardiovascular and respiratory systems, such as side effects on the nervous system, including drowsiness, dizziness, etc.; at the same time, an over-short duration of anesthesia may affect the anesthetic effect, causing dose increase of anesthetic during surgery and other issues.
Rhesus monkeys (male, 5-6 kg) were randomly divided into several groups. After administering the drugs intravenously in a single bolus, the latency to and the duration of loss of consciousness were recorded.

[1] = system: GABA Cl− current, HEK293T cells; experiment: Cellular GABA activation current via whole-cell patch clamp; format: cell-based; conditions: Homo sapiens, HEK-293T, with 1 μM GABA, holding potential −60 mV; for Emax at 10 µM: concentration 10 μM; for EC50: read-out: EC50 (concentration at half of Emax); for Emax at 30 µM: concentration 30 μM
Experimental: Test compounds were dissolved in external solution (NaCl 140 mM, KCl 4.7 mM, HEPES 10 mM. CaCl2 2 mM, glucose 11 mM, and MgCl2 1 mM, pH 7.4) at various concentrations. HEK293T cells were plated on glass cover slips, and incubated in DMEM medium at 37° C. and 5% CO2 for 24 h.
An HEKA EPC 10 USB patch clamp amplifier was used in the whole-cell recording of GABA Cl^− current. 1 μM GABA was used to excite Cl^− current. Cells were voltage clamped at a holding potential of −60 mV, and treated with the test compounds of different concentrations together with 1 μM of GABA. The Cl^− current induction effect of the test compounds on the same cell, the maximum percentage of current potentiation (Emax), and the concentration of test compounds at half of Emax (EC50) were recorded.

Kunming mice = experiment: Drug-induced loss of righting reflex in mice; format: in vivo; conditions: 60 mg/kg, single bolus via tail vein
Text: as §1, §2
Kunming mice (male, 18-25 g) were randomly divided into several groups. After administering the drugs in a single bolus via the tail vein, the latency to loss of righting reflex and the duration of loss of righting reflex were recorded.

[2] = read-out: Emax (maximum percentage of current potentiation)

SMILES | Latency to loss of consciousness (Rhesus monkeys; 6 mg/kg) [min] | EC50 [1] [nM] | Duration of loss of righting reflex (Kunming mice) [min] | Latency to loss of righting reflex (Kunming mice) [min] | Duration of loss of consciousness (Rhesus monkeys; 8 mg/kg) [min] | other results
COC(=O)CC[C@@H]1N=C(c2ccccc2F)c2cc(Cl)ccc2-n2c(C3CC3)nnc21 [Example 18, (S)-methyl 3-(8-chloro-1-cyclopropyl-6-(2-fluorophenyl)-4H-benzo[f][1,2,4]triazolo[4,3-a][1,4]diazepin-4-yl)propanoate] | 5.09 | 470 | 25.61 | 0.19 |  | Duration of loss of consciousness (Rhesus monkeys; 1 mg/kg): 41.15 min; Latency to loss of consciousness (Rhesus monkeys; 1 mg/kg): 3.30 min; Latency to loss of consciousness (Rhesus monkeys; 4 mg/kg): 5.10 min; Emax at 10 µM [1, 2]: 347%
CCc1cnc2n1-c1ccc(Br)cc1C(c1ccccn1)=N[C@H]2CCC(=O)OC [Example 15, (S)-methyl 3-(8-bromo-1-ethyl-6-(pyridin-2-yl)-4H-benzo[f]imidazo[1,2-a][1,4]diazepin-4-yl)propanoate] | 2.75 |  |  | 0.24 |  | Duration of loss of consciousness (Rhesus monkeys; 4 mg/kg): 37.50 min; Latency to loss of consciousness (Rhesus monkeys; 4 mg/kg): 3.75 min; Duration of loss of consciousness (Rhesus monkeys; 6 mg/kg): 49.00 min
COC(=O)CC[C@@H]1N=C(c2ccccn2)c2cc(Cl)ccc2-n2c(C3CC3)cnc21 [Example 21, (S)-methyl 3-(8-chloro-1-cyclopropyl-6-(pyridin-2-yl)-4H-benzo[f]imidazo[1,2-a][1,4]diazepin-4-yl)propanoate] |  |  | 23.23 |  |  | 
COC(=O)CC[C@@H]1N=C(c2ccccn2)c2cc(Br)ccc2-n2c(C)nnc21 [Example 4, (S)-methyl 3-(8-bromo-1-methyl-6-(pyridin-2-yl)-4H-benzo[f][1,2,4]triazolo[4,3-a][1,4]diazepin-4-yl)propanoate] |  | 980 | 19.14 |  | 45.00 | Emax at 30 µM [1, 2]: 472%
COC(=O)CC[C@@H]1N=C(c2ccccn2)c2cc(Br)ccc2-n2ccnc21 [Example 2, (S)-methyl 3-(8-bromo-6-(pyridin-2-yl)-4H-benzo[f]imidazo[1,2-a][1,4]diazepin-4-yl)propanoate] | 3.92 |  |  | 0.13 | 55.90 | Duration of loss of consciousness (Rhesus monkeys; 6 mg/kg): 18.10 min; Emax at 30 µM [1, 2]: 358%
COC(=O)CC[C@@H]1N=C(c2ccccn2)c2cc(Cl)ccc2-n2c(C3CCC3)cnc21 [Example 29, (S)-methyl 3-(8-chloro-1-cyclobutyl-6-(pyridin-2-yl)-4H-benzo[f]imidazo[1,2-a][1,4]diazepin-4-yl)propanoate] |  |  | 19.09 | 0.21 |  | 
COC(=O)CC[C@@H]1N=C(c2ccccc2)c2cc(Cl)ccc2-n2cnnc21 [Example 3, (S)-methyl 3-(8-chloro-6-phenyl-4H-benzo[f][1,2,4]triazolo[4,3-a][1,4]diazepin-4-yl)propanoate] |  | 950 | 11.76 |  |  | Emax at 30 µM [1, 2]: 325%
[2H]Cc1cnc2n1-c1ccc(Br)cc1C(c1ccccn1)=N[C@H]2CCC(=O)OC [Example 6, (S)-methyl 3-(8-bromo-1-deuteromethyl-6-(pyridin-2-yl)-4H-benzo[f]imidazo[1,2-a][1,4]diazepin-4-yl)propanoate] |  |  | 23.95 | 0.17 |  | 
COC(=O)CC[C@@H]1N=C(c2ccccn2)c2cc(Br)ccc2-n2cnnc21 [Example 9, (S)-methyl 3-(8-bromo-6-(pyridin-2-yl)-4H-benzo[f][1,2,4]triazolo[4,3-a][1,4]diazepin-4-yl)propanoate] |  | 720 | 12.88 |  | 36.47 | Emax at 10 µM [1, 2]: 408%
CCc1nnc2n1-c1ccc(Cl)cc1C(c1ccccn1)=N[C@H]2CCC(=O)OC [Example 30, (S)-methyl 3-(8-chloro-1-ethyl-6-(pyridin-2-yl)-4H-benzo[f][1,2,4]triazolo[4,3-a][1,4]diazepin-4-yl)propanoate] |  |  | 17.74 | 0.20 |  | 
COC(=O)CC[C@@H]1N=C(c2ccccn2)c2cc(Cl)ccc2-n2c(C(C)C)nnc21 [Example 31, (S)-methyl 3-(8-chloro-1-isopropyl-6-(pyridin-2-yl)-4H-benzo[f][1,2,4]triazolo[4,3-a][1,4]diazepin-4-yl)propanoate] |  |  | 17.82 | 0.16 |  | 
COC(=O)CC[C@@H]1N=C(c2ccccc2F)c2cc(Cl)ccc2-n2cnnc21 [Example 17, (S)-methyl 3-(8-chloro-6-(2-fluorophenyl)-4H-benzo[f][1,2,4]triazolo[4,3-a][1,4]diazepin-4-yl)propanoate] |  |  | 18.51 |  | 52.50 | 
COC(=O)CC[C@@H]1N=C(c2ccccn2)c2cc(Br)ccc2-n2c(C)cnc21 [Remimazolam, reference compound] | 5.50 |  |  | 0.28 |  | Latency to loss of consciousness (Rhesus monkeys; 4 mg/kg): 5.34 min
COC(=O)CC[C@@H]1N=C(c2ccccn2)c2cc(Br)ccc2-n2c(C3CC3)cnc21 [Example 5, (S)-methyl 3-(8-bromo-1-cyclopropyl-6-(pyridin-2-yl)-4H-benzo[f]imidazo[1,2-a][1,4]diazepin-4-yl)propanoate] |  | 360 | 23.33 |  |  | Emax at 10 µM [1, 2]: 160%
[2H]Cc1nnc2n1-c1ccc(Br)cc1C(c1ccccn1)=N[C@H]2CCC(=O)OC [Example 11, (S)-methyl 3-(8-bromo-1-deuteromethyl-6-(pyridin-2-yl)-4H-benzo[f][1,2,4]triazolo[4,3-a][1,4]diazepin-4-yl)propanoate] |  | 400 | 12.82 |  |  | Emax at 30 µM [1, 2]: 319%
COCc1cnc2n1-c1ccc(Br)cc1C(c1ccccn1)=N[C@H]2CCC(=O)OC [Example 10, (S)-methyl 3-(8-bromo-1-(methoxymethyl)-6-(pyridin-2-yl)-4H-benzo[f]imidazo[1,2-a][1,4]diazepin-4-yl)propanoate] | 4.00 | 470 | 17.27 |  | 26.00 | Duration of loss of consciousness (Rhesus monkeys; 6 mg/kg): 26.00 min; Emax at 3 µM ([1]; concentration 3 μM, read-out: Emax (maximum percentage of current potentiation)): 197%
